In patent US10765114B2, “4-amino-6-(pyridyl and 2-substitutedphenyl)-picolinates and 6-amino-2-(pyridyl and 2-substitutedphenyl)-pyrimidine-4-carboxylates and their use as herbicides” (Dow AgroSciences LLC, priority 2013, dated 2020):
Where two headings read alike, the source gives them in different places.

What was measured:
[1] = system: Key Grass and Sedge Weeds as well as Grass Crops; assay: Post-Emergent Test II (Table 6); assay type: in vivo; conditions: post-emergence, 336 h, 14 days after application; for pest or weed control at 70 g/ha: 70 g ai/ha; for pest or weed control at 140 g/ha: 140 g ai/ha
In short: (§1)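 Seedlings are raised 7-21 days in Metro-Mix 360 (pH 6.0-6.8) under greenhouse conditions, then sprayed at the first or second true leaf stage. Application is 187 L/ha, with serial rates down to 1/16× of the highest. Plants are subirrigated, and percent injury is rated visually after 14 days.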

[2] = system: Key Broadleaf Weed and Crop Species; assay: Post-Emergent Test II (Table 5); assay type: in vivo; conditions: post-emergence, 336 h; for pest or weed control at 70 g/ha: application rate 70 (kg ai/ha; footnote: g ai/ha); for pest or weed control at 140 g/ha: application rate 140 (kg ai/ha; footnote: g ai/ha)
In short: as §1

[3] = CYPSS, read-out: Visual Growth Reduction (%) 14 Days After Application CYPSS
[4] = DIGSA: crabgrass (Digitaria sanguinalis), read-out: Visual Growth Reduction (%) 14 Days After Application DIGSA
[5] = ECHSS, read-out: Visual Growth Reduction (%) 14 Days After Application ECHSS
[6] = ORYSS (crop), read-out: Visual Growth Reduction (%) 14 Days After Application ORYSS
[7] = SETFA: giant foxtail (Setaria faberi), read-out: Visual Growth Reduction (%) 14 Days After Application SETFA
[8] = SORVU: grain sorghum (Sorghum vulgare), read-out: Visual Growth Reduction (%) 14 Days After Application SORVU
[9] = TRZSS (crop), read-out: Visual Growth Reduction (%) 14 Days After Application TRZSS
[10] = ZEAMX: maize, corn (Zea mays), read-out: Visual Growth Reduction (%) 14 Days After Application ZEAMX
[11] = Abutilon theophrasti, ABUTH: velvetleaf (Abutilon theophrasti), read-out: Visual Growth Reduction (%) 14 Days After Application ABUTH
[12] = Amaranthus retroflexus, AMARE: redroot pigweed (Amaranthus retroflexus), read-out: Visual Growth Reduction (%) 14 Days After Application AMARE
[13] = Brassica napus, BRSSS: oilseed rape, canola (Brassica napus), read-out: Visual Growth Reduction (%) 14 Days After Application BRSSS
[14] = Chenopodium album, CHEAL: lambsquarters (Chenopodium album), read-out: Visual Growth Reduction (%) 14 Days After Application CHEAL
[15] = Euphorbia heterophylla, EPHHL: wild poinsettia (Euphorbia heterophylla), read-out: Visual Growth Reduction (%) 14 Days After Application EPHHL
[16] = Helianthus annuus, HELAN: sunflower (Helianthus annuus), read-out: Visual Growth Reduction (%) 14 Days After Application HELAN
[17] = Viola tricolor, VIOTR: wild pansy (Viola tricolor), read-out: Visual Growth Reduction (%) 14 Days After Application VIOTR

COC(=O)c1nc(-c2ccc(C(F)(F)F)nc2)c(F)c(N)c1Cl [Compound 59, methyl 4-amino-5-chloro-3-fluoro-6′-(trifluoromethyl)-[2,3′-bipyridine]-6-carboxylate]
pest or weed control at 70 g/ha [1, 3]: 95 to 100%
pest or weed control at 140 g/ha [1, 3]: 95 to 100%
pest or weed control at 70 g/ha [1, 4]: 75 to 84%
pest or weed control at 140 g/ha [1, 4]: 85 to 94%
pest or weed control at 70 g/ha [1, 5]: 85 to 94%
pest or weed control at 140 g/ha [1, 5]: 85 to 94%
pest or weed control at 70 g/ha [1, 6]: 0 to 29%
pest or weed control at 140 g/ha [1, 6]: 0 to 29%
pest or weed control at 70 g/ha [1, 7]: 60 to 74%
pest or weed control at 140 g/ha [1, 7]: 75 to 84%
pest or weed control at 70 g/ha [1, 8]: 75 to 84%
pest or weed control at 140 g/ha [1, 8]: 85 to 94%
pest or weed control at 70 g/ha [1, 9]: 45 to 59%
pest or weed control at 140 g/ha [1, 9]: 45 to 59%
pest or weed control at 70 g/ha [1, 10]: 75 to 84%
pest or weed control at 140 g/ha [1, 10]: 75 to 84%
melting point: 137 °C
pest or weed control at 70 g/ha [2, 11]: 85 to 94%
pest or weed control at 140 g/ha [2, 11]: 95 to 100%
pest or weed control at 70 g/ha [2, 12]: 85 to 94%
pest or weed control at 140 g/ha [2, 12]: 95 to 100%
pest or weed control at 70 g/ha [2, 13]: 60 to 74%
pest or weed control at 140 g/ha [2, 13]: 60 to 74%
pest or weed control at 70 g/ha [2, 14]: 95 to 100%
pest or weed control at 140 g/ha [2, 14]: 95 to 100%
pest or weed control at 70 g/ha [2, 15]: 95 to 100%
pest or weed control at 140 g/ha [2, 15]: 95 to 100%
pest or weed control at 70 g/ha [2, 16]: 95 to 100%
pest or weed control at 140 g/ha [2, 16]: 95 to 100%
pest or weed control at 70 g/ha [2, 17]: 60 to 74%
pest or weed control at 140 g/ha [2, 17]: 75 to 84%

COC(=O)c1nc(-c2ccc(OC)nc2)c(F)c(N)c1Cl [Compound 62]
pest or weed control at 70 g/ha [1, 3]: 0 to 29%
pest or weed control at 140 g/ha [1, 3]: 30 to 44%
pest or weed control at 70 g/ha [1, 4]: 75 to 84%
pest or weed control at 140 g/ha [1, 4]: 60 to 74%
pest or weed control at 70 g/ha [1, 5]: 95 to 100%
pest or weed control at 140 g/ha [1, 5]: 95 to 100%
pest or weed control at 70 g/ha [1, 6]: 0 to 29%
pest or weed control at 140 g/ha [1, 6]: 0 to 29%
pest or weed control at 70 g/ha [1, 7]: 60 to 74%
pest or weed control at 140 g/ha [1, 7]: 85 to 94%
pest or weed control at 70 g/ha [1, 8]: 60 to 74%
pest or weed control at 140 g/ha [1, 8]: 75 to 84%
pest or weed control at 70 g/ha [1, 9]: 45 to 59%
pest or weed control at 140 g/ha [1, 9]: 45 to 59%
pest or weed control at 70 g/ha [1, 10]: 95 to 100%
pest or weed control at 140 g/ha [1, 10]: 95 to 100%
melting point: 168 to 169 °C
pest or weed control at 70 g/ha [2, 11]: 95 to 100%
pest or weed control at 140 g/ha [2, 11]: 95 to 100%
pest or weed control at 70 g/ha [2, 12]: 95 to 100%
pest or weed control at 140 g/ha [2, 12]: 95 to 100%
pest or weed control at 70 g/ha [2, 13]: 60 to 74%
pest or weed control at 140 g/ha [2, 13]: 60 to 74%
pest or weed control at 70 g/ha [2, 14]: 95 to 100%
pest or weed control at 140 g/ha [2, 14]: 95 to 100%
pest or weed control at 70 g/ha [2, 15]: 95 to 100%
pest or weed control at 140 g/ha [2, 15]: 95 to 100%
pest or weed control at 70 g/ha [2, 16]: 95 to 100%
pest or weed control at 140 g/ha [2, 16]: 95 to 100%
pest or weed control at 70 g/ha [2, 17]: 0 to 29%
pest or weed control at 140 g/ha [2, 17]: 0 to 29%

COc1c(N)nc(-c2ccc(Cl)c(F)c2C)nc1C(=O)O [Compound 64]
pest or weed control at 70 g/ha [1, 3]: 0 to 29%
pest or weed control at 140 g/ha [1, 3]: 0 to 29%
pest or weed control at 70 g/ha [1, 4]: 0 to 29%
pest or weed control at 140 g/ha [1, 4]: 0 to 29%
pest or weed control at 70 g/ha [1, 5]: 0 to 29%
pest or weed control at 140 g/ha [1, 5]: 0 to 29%
pest or weed control at 70 g/ha [1, 6]: 0 to 29%
pest or weed control at 140 g/ha [1, 6]: 0 to 29%
pest or weed control at 70 g/ha [1, 7]: 0 to 29%
pest or weed control at 140 g/ha [1, 7]: 0 to 29%
pest or weed control at 70 g/ha [1, 8]: 0 to 29%
pest or weed control at 140 g/ha [1, 8]: 0 to 29%
pest or weed control at 70 g/ha [1, 9]: 0 to 29%
pest or weed control at 140 g/ha [1, 9]: 0 to 29%
pest or weed control at 70 g/ha [1, 10]: 0 to 29%
pest or weed control at 140 g/ha [1, 10]: 0 to 29%
melting point: 140 to 143 °C
pest or weed control at 70 g/ha [2, 11]: 0 to 29%
pest or weed control at 140 g/ha [2, 11]: 0 to 29%
pest or weed control at 70 g/ha [2, 12]: 60 to 74%
pest or weed control at 140 g/ha [2, 12]: 75 to 84%
pest or weed control at 70 g/ha [2, 13]: 0 to 29%
pest or weed control at 140 g/ha [2, 13]: 0 to 29%
pest or weed control at 70 g/ha [2, 14]: 95 to 100%
pest or weed control at 140 g/ha [2, 14]: 95 to 100%
pest or weed control at 70 g/ha [2, 15]: 0 to 29%
pest or weed control at 140 g/ha [2, 15]: 0 to 29%
pest or weed control at 70 g/ha [2, 16]: 45 to 59%
pest or weed control at 140 g/ha [2, 16]: 85 to 94%
pest or weed control at 70 g/ha [2, 17]: 0 to 29%
pest or weed control at 140 g/ha [2, 17]: 0 to 29%
